Experimental data reported in ChEMBL document CHEMBL5726596, “Pyrazolo pyrimidine derivatives and their use as MALT1 inhibitors” (2017).

Molecular target: T1, Mucosa-associated lymphoid tissue lymphoma translocation protein 1 (Homo sapiens, UniProt Q9UDY8)
T1 sequence (Q9UDY8 whole entry): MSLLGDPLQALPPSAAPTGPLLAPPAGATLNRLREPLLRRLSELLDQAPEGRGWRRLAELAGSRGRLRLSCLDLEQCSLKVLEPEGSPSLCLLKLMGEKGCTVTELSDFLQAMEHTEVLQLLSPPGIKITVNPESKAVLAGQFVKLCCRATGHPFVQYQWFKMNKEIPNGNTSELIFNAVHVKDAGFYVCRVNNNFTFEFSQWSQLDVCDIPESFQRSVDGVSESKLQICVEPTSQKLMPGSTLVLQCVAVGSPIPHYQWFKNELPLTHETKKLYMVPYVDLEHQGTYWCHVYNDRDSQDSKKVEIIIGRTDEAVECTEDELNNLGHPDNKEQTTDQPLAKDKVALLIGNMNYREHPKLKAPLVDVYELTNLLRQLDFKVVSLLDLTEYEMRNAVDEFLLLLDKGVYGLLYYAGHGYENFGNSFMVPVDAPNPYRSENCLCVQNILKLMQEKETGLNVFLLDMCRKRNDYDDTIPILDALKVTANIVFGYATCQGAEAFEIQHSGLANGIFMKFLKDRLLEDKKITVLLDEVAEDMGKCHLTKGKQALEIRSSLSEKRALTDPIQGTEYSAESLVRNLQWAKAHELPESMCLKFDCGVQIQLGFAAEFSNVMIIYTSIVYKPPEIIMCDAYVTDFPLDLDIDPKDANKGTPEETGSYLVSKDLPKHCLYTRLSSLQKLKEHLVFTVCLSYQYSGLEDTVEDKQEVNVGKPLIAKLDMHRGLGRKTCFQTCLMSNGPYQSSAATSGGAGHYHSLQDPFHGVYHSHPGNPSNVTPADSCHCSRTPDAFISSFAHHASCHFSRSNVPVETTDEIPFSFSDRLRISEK
Test: The assay buffer consists of 200 mM Tris/HCl at pH 7.5, 0.8 M Na citrate, 100 μM EGTA, 100 μM DTT and 0.05% (w/v) CHAPS. […] Test compounds were dissolved in 100% (v/v) DMSO or a mixture containing 90% (v/v) DMSO and 10% (v/v) H2O at a stock concentration of 100 mM. Serial dilutions of test compounds were prepared using either 100% (v/v) DMSO or a mixture containing 90% (v/v) DMSO and 10% (v/v) H2O.

IC50: 5 nM
SMILES: CCOc1ncc(NC(=O)Nc2cnc3cc(Cl)nn3c2C(C)C)cc1Cl
